Test results reported in PubChem BioAssay AID1963984 (Molecular Pharmacology Branch, DTP, NCI, 2024).

System: 233499-124-R-J3-PDC spheroids with HUVEC/MSC, viability
Experiment: Anticancer human tumor 233499-124-R-J3-PDC patient-derived colon adenocarcinoma cell line growth inhibition [PI3K]
Conditions: for IC50: curve of first compound; for viability, T/C: stronger effect = lower value
Outline: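 Combination activity was assessed by viability in multicellular tumor spheroids carrying HUVEC and MSC components. Agents were tested with PI3K inhibitors from a Cmax-based top dose (or 10 microM) downward in half-log increments.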

[1] = second compound 0.0316 µM, first compound 0.000316 µM
[2] = second compound 0.0316 µM, first compound 0.001 µM
[3] = second compound 0.0316 µM, first compound 0.00316 µM
[4] = second compound 0.0316 µM, first compound 0.01 µM
[5] = second compound 0.0316 µM, first compound 0.0316 µM
[6] = second compound 0.0316 µM, first compound 0.1 µM
[7] = second compound 0.1 µM, first compound 0.000316 µM
[8] = second compound 0.1 µM, first compound 0.001 µM
[9] = second compound 0.1 µM, first compound 0.00316 µM
[10] = second compound 0.1 µM, first compound 0.01 µM
[11] = second compound 0.1 µM, first compound 0.0316 µM
[12] = second compound 0.1 µM, first compound 0.1 µM
[13] = second compound 0.316 µM, first compound 0.000316 µM
[14] = second compound 0.316 µM, first compound 0.001 µM
[15] = second compound 0.316 µM, first compound 0.00316 µM
[16] = second compound 0.316 µM, first compound 0.01 µM
[17] = second compound 0.316 µM, first compound 0.0316 µM
[18] = second compound 0.316 µM, first compound 0.1 µM
[19] = second compound 1 µM, first compound 0.000316 µM
[20] = second compound 1 µM, first compound 0.001 µM
[21] = second compound 1 µM, first compound 0.00316 µM
[22] = second compound 1 µM, first compound 0.01 µM
[23] = second compound 1 µM, first compound 0.0316 µM
[24] = second compound 1 µM, first compound 0.1 µM
[25] = second compound 3.16 µM, first compound 0.000316 µM
[26] = second compound 3.16 µM, first compound 0.001 µM
[27] = second compound 3.16 µM, first compound 0.00316 µM
[28] = second compound 3.16 µM, first compound 0.01 µM
[29] = second compound 3.16 µM, first compound 0.0316 µM
[30] = second compound 3.16 µM, first compound 0.1 µM
[31] = second compound 10 µM, first compound 0.000316 µM
[32] = second compound 10 µM, first compound 0.001 µM
[33] = second compound 10 µM, first compound 0.00316 µM
[34] = second compound 10 µM, first compound 0.01 µM
[35] = second compound 10 µM, first compound 0.0316 µM
[36] = second compound 10 µM, first compound 0.1 µM
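Note: spheroids exposed to agents for seven days before readout.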
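Throughout, for viability, T/C: percent viability relative to DMSO vehicle control taken as 100%.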

In the case of CC(=O)c1c(C)c2cnc(Nc3ccc(N4CCNCC4)cn3)nc2n(C2CCCC2)c1=O + CC(Nc1ncnc2nc[nH]c12)c1cc2cccc(Cl)c2c(=O)n1-c1ccccc1, the IC50 (second compound 0.0316 µM) is reported as > 100 nM, the IC50 (second compound 0.1 µM) is reported as > 100 nM and the IC50 (second compound 0.316 µM) is reported as > 100 nM. The IC50 (second compound 1 µM) was > 100 nM, the IC50 (second compound 3.16 µM) was > 100 nM and the IC50 (second compound 10 µM) was > 100 nM. It also gave a viability, T/C [1] of 99%, a viability, T/C [2] of 83.9% and a viability, T/C [3] of 93.1%. It also gave a viability, T/C [4] of 99.5%, a viability, T/C [5] of 101% and a viability, T/C [6] of 89%. It also gave a viability, T/C [7] of 92.7%, a viability, T/C [8] of 99.2% and a viability, T/C [9] of 93.9%. It also gave a viability, T/C [10] of 115%, a viability, T/C [11] of 101% and a viability, T/C [12] of 82.6%. For the same compound, the viability, T/C [13] was 102%, the viability, T/C [14] was 91.2% and the viability, T/C [15] was 93%. For the same compound, the viability, T/C [16] was 92.2%, the viability, T/C [17] was 86% and the viability, T/C [18] was 77.2%. For the same compound, the viability, T/C [19] was 100%, the viability, T/C [20] was 86.9% and the viability, T/C [21] was 78.1%. For the same compound, the viability, T/C [22] was 71.5%, the viability, T/C [23] was 76.1% and the viability, T/C [24] was 81.8%. It also gave a viability, T/C [25] of 106%, a viability, T/C [26] of 105% and a viability, T/C [27] of 94.2%. For the same compound, the viability, T/C [28] was 83.8%, the viability, T/C [29] was 77.2% and the viability, T/C [30] was 53.4%. For the same compound, the viability, T/C [31] was 86.3%, the viability, T/C [32] was 103% and the viability, T/C [33] was 92.9%. It also gave a viability, T/C [34] of 86.2%, a viability, T/C [35] of 82.4% and a viability, T/C [36] of 68.7%.

CC(C)n1nc(-c2ccc3oc(N)nc3c2)c2c(N)ncnc21 + CC(Nc1ncnc2nc[nH]c12)c1cc2cccc(Cl)c2c(=O)n1-c1ccccc1 was tested, and the IC50 (second compound 0.0316 µM) was 81.1 nM, the IC50 (second compound 0.1 µM) was 89.3 nM and the IC50 (second compound 0.316 µM) was > 100 nM. The IC50 (second compound 1 µM) was 83 nM, the IC50 (second compound 3.16 µM) was > 100 nM and the IC50 (second compound 10 µM) was 90.9 nM. For the same compound, the viability, T/C [1] was 108%, the viability, T/C [2] was 90.8% and the viability, T/C [3] was 104%. The viability, T/C [4] was 79.4%, the viability, T/C [5] was 73.2% and the viability, T/C [6] was 44.5%. It also gave a viability, T/C [7] of 96.3%, a viability, T/C [8] of 85.1% and a viability, T/C [9] of 97.8%. For the same compound, the viability, T/C [10] was 79.3%, the viability, T/C [11] was 84.2% and the viability, T/C [12] was 45.9%. For the same compound, the viability, T/C [13] was 93.2%, the viability, T/C [14] was 82.6% and the viability, T/C [15] was 83.3%. For the same compound, the viability, T/C [16] was 95.9%, the viability, T/C [17] was 75.2% and the viability, T/C [18] was 81.7%. For the same compound, the viability, T/C [19] was 88.5%, the viability, T/C [20] was 82.2% and the viability, T/C [21] was 104%. For the same compound, the viability, T/C [22] was 93%, the viability, T/C [23] was 83.2% and the viability, T/C [24] was 43.3%. For the same compound, the viability, T/C [25] was 83.4%, the viability, T/C [26] was 89.5% and the viability, T/C [27] was 107%. It also gave a viability, T/C [28] of 67.7%, a viability, T/C [29] of 74.3% and a viability, T/C [30] of 64.8%. It also gave a viability, T/C [31] of 82.4%, a viability, T/C [32] of 96.2% and a viability, T/C [33] of 88.3%. For the same compound, the viability, T/C [34] was 79.7%, the viability, T/C [35] was 78.8% and the viability, T/C [36] was 47.2%.
